Source: patent publication US20240067657A1, “AMIDO-SUBSTITUTED PYRIDYL COMPOUNDS AND METHODS OF USE THEREOF FOR THE TREATMENT OF HERPESVIRUSES” (Merck Sharp & Dohme LLC, priority 2020, published 2024)
Where two headings read alike, the source gives them in different places.

Key:
[1] = target: T1, Human cytomegalovirus DNA polymerase (Human cytomegalovirus, UniProt P08546); assay: HCMV polymerase assay (AlphaLISA, IC50); format: biochemical; settings: polymerase assay of Example 190
T1 construct: made in house; host or cells: SF21 insect cells (baculovirus vector)
T1 sequence (P08546 whole entry): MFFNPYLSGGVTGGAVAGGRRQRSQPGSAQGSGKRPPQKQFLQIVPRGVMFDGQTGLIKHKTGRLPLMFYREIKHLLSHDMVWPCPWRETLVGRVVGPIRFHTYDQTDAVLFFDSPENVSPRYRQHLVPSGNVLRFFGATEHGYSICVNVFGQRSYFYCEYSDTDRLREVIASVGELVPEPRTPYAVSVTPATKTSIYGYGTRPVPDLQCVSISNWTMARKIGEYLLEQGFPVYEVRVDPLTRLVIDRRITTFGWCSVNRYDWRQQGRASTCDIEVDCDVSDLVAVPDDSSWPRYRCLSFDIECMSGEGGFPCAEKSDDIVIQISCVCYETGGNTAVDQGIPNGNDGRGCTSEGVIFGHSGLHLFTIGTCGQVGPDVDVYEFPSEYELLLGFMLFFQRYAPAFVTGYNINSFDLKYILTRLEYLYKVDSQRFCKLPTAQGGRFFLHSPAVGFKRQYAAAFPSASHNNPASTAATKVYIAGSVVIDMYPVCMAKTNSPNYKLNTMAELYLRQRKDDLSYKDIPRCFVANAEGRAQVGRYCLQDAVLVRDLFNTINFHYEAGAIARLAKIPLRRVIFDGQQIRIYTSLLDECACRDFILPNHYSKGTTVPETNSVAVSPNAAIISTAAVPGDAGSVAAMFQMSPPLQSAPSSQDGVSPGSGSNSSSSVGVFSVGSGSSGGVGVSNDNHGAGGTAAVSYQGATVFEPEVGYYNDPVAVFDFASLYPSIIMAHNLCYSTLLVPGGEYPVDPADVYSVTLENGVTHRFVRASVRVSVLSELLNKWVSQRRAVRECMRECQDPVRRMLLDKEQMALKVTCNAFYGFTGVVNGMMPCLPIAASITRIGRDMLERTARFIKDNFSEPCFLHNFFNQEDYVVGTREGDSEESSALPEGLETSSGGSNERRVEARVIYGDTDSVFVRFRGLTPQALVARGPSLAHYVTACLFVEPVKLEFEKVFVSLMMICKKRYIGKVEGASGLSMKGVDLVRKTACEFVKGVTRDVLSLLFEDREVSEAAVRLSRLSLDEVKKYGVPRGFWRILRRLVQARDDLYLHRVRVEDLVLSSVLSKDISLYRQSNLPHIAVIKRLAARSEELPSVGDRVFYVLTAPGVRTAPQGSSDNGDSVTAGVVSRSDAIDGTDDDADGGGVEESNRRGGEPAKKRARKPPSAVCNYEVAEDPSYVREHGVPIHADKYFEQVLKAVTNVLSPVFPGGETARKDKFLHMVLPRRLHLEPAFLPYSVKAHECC
In short: (§1)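 Baculovirus-expressed polymerase (HCMV 0.2 nM, VZV 0.4 nM final) preincubated 30 min at room temperature with compound in pH 7.5 HEPES buffer; reaction started with 1.6 nM DIG-primer/template and nM dNTPs including biotin-dUTP, run 60 min at 37° C. Incorporation detected by AlphaLISA; IC50 from 4-parameter fit.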

[2] = target: T2, varicella zoster virus DNA polymerase (Varicella-zoster virus, UniProt P09252); assay: VZV polymerase assay (AlphaLISA, IC50); format: biochemical; settings: polymerase assay of Example 190
T2 construct: made in house; host or cells: SF21 insect cells (baculovirus vector)
T2 sequence (P09252 whole entry): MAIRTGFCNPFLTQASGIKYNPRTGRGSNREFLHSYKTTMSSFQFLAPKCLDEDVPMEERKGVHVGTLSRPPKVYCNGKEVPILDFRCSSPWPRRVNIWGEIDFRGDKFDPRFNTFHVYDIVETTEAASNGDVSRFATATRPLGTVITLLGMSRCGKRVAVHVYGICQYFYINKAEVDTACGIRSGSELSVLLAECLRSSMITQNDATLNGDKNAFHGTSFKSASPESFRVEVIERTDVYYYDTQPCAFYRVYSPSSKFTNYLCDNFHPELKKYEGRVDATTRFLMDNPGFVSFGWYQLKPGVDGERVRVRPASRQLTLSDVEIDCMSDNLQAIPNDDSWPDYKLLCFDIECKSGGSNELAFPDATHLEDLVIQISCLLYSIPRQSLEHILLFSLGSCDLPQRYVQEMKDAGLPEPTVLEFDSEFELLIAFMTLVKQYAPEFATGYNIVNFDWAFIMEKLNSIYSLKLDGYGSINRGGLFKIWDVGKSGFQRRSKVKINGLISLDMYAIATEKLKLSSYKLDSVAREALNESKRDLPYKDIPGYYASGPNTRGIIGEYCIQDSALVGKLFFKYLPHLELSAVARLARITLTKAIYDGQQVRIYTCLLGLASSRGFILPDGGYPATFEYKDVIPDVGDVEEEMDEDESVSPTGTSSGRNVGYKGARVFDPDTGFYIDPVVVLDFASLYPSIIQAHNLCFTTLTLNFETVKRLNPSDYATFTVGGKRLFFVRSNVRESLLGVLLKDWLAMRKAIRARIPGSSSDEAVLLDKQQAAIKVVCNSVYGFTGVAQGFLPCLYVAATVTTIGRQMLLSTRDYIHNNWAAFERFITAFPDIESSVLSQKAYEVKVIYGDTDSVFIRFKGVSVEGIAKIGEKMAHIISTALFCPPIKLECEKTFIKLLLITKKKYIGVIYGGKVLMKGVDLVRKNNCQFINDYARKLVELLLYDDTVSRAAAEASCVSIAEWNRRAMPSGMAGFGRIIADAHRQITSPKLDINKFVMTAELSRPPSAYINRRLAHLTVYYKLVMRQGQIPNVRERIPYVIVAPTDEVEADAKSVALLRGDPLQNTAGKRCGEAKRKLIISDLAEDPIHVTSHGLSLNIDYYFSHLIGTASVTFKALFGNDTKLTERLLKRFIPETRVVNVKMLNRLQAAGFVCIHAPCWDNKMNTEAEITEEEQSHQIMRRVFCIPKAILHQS
In short: as §1

[3] = test system: HSV-1 Strain F in Vero or MRC5 cells; assay: Viral qPCR assay HSV-1 (V0/V1, V2/V3), EC50; format: cell-based
In short: (§2)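 Infected cells added to compounds (10-point 3-fold series), ~72 h at 37 °C, then lysed; viral genomes by TaqMan qPCR against plasmid standard, normalized to PPIA in V0/V1 only, EC50 from 4-parameter fit. HCMV AD169, 0.05-0.1 pfu/cell, ± 50% FBS; VZV 0.04-0.1 pfu/cell; HSV-1 F 0.0005-0.004 pfu/cell.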

[4] = test system: HCMV Strain AD169 in MRC-5 cells; assay: Viral qPCR assay HCMV (V0/V1, V2/V3), EC50; format: cell-based
In short: as §2

[5] = test system: VZV in MeWo or MRC5 cells; assay: Viral qPCR assay VZV (V0/V1, V2/V3), EC50; format: cell-based
In short: as §2

[6] = Human alphaherpesvirus 1, Vero, VERO cells, 10%, read-out: HSV1 Cell (EC50) VERO 10%
[7] = Human betaherpesvirus 5, AD169, MRC5, viral qPCR assay of Example 191, read-out: HCMV Cell (EC50)
[8] = Human alphaherpesvirus 3, MeWo, MEWO cells, 10%, read-out: VZV Cell (EC50) MEWO 10%
[9] = Human alphaherpesvirus 1, MRC5, MRC5 cells, 10%, read-out: HSV1 Cell (EC50) MRC5 10%
[10] = Human alphaherpesvirus 3, MRC5, MRC5 cells, 10%, read-out: VZV Cell (EC50) MRC5 10%

| IC50 [1] [nM] | IC50 [2] [nM] | Compound | EC50 [3, 6] [nM] | EC50 [4, 7] [nM] | EC50 [5, 8] [nM] | EC50 [3, 9] [nM] | EC50 [5, 10] [nM] | EC50 ([3]; Human alphaherpesvirus 1, Vero, read-out: HSV1 Cell (EC50) VERO 10%) [nM] | EC50 ([4]; Human betaherpesvirus 5, AD169, MRC5, read-out: HCMV Cell (EC50)) [nM] | EC50 ([5]; Human alphaherpesvirus 3, MeWo, read-out: VZV Cell (EC50) MEWO 10%) [nM] |
| --- | --- | --- | --- | --- | --- | --- | --- | --- | --- | --- |
| 103 | 37.2 | CC(=O)N1CCC(Oc2cc(C(=O)NCc3ccc(Cl)cc3)ncc2/C=C\c2ccccn2)CC1 [Compound 77] | 122 | 825 | 230 |  |  |  |  |  |
| 83.2 | 31.7 | O=C(NCc1ccc(Cl)cc1)c1cc(O[C@H]2CCN3C(=O)OC[C@@H]3C2)c(CN2CCOCC2)cn1 [Compound 78] | 560 | 446 | 642 |  |  |  |  |  |
| 6.9 | 5.19 | O=C(NCc1ccc(Cl)c(F)c1)c1cc(O[C@H]2CCN3C(=O)OC[C@@H]3C2)c(-c2cnn(C(F)F)c2)cn1 [Compound 79] | 196 | 103 |  | 219 | 209 |  |  |  |
| 14.3 | 11.9 | C[C@H](NC(=O)c1cc(O[C@H]2CCN3C(=O)OC[C@@H]3C2)c(-c2cnn(C(F)F)c2)cn1)c1ccc(Cl)cc1 [Compound 81] |  | 312 |  | 153 | 307 |  |  |  |
| 16 | 9.02 | O=C(NCc1ccc([N+](=O)[O-])cc1)c1cc(O[C@H]2CCN3C(=O)OC[C@@H]3C2)c(-c2cnn(C(F)F)c2)cn1 [Compound 82] |  | 90.5 |  | 125 | 243 |  |  |  |
| 25.9 | 26.7 | N#Cc1ccc(CNC(=O)c2cc(O[C@H]3CCN4C(=O)OC[C@@H]4C3)c(-c3cnn(C(F)F)c3)cn2)c(F)c1 [Compound 84] | 520 | 350 | 66.8 | 463 | 345 |  |  |  |
| 189 | 20.6 | O=C(NCc1ccc(Cl)nc1)c1cc(O[C@H]2CCN3C(=O)OC[C@@H]3C2)c(-c2cnn(C(F)F)c2)cn1 [Compound 86] | 1450 | 754 | 825 |  |  |  |  |  |
| 86.3 | 38.8 | O=C(NCc1ccc(F)c(F)c1F)c1cc(O[C@H]2CCN3C(=O)OC[C@@H]3C2)c(-c2cnn(C(F)F)c2)cn1 [Compound 87] | 378 | 626 | 441 |  |  |  |  |  |
| 189 | 105 | O=C(NCc1ccc(Cl)cn1)c1cc(O[C@H]2CCN3C(=O)OC[C@@H]3C2)c(-c2cnn(C(F)F)c2)cn1 [Compound 90] | 853 | 1040 | 737 | 2550 | 5990 |  |  |  |
| 32.5 | 17.4 | N#Cc1ccc(CNC(=O)c2cc(O[C@H]3CCN4C(=O)OC[C@@H]4C3)c(-c3cnn(C(F)F)c3)cn2)cc1 [Compound 91] | 239 | 239 | 265 |  |  |  |  |  |
| 1.42 | 1.99 | Cn1cc(-c2cnc(C(=O)NCc3ccc(C#N)c(F)c3)cc2O[C@H]2CCN3C(=O)OC[C@@H]3C2)cn1 [Compound 93] | 241 | 66.7 |  | 124 | 118 |  |  |  |
| 31.7 | 21.4 | Cn1cc(-c2cnc(C(=O)NCc3ccc(F)c(F)c3F)cc2O[C@H]2CCN3C(=O)OC[C@@H]3C2)cn1 [Compound 94] | 368 | 111 | 155 | 412 | 427 |  |  |  |
| 5.46 | 3.36 | Cn1cc(-c2cnc(C(=O)NCc3ccc(Cl)c(F)c3)cc2O[C@H]2CCN3C(=O)OC[C@@H]3C2)cn1 [Compound 96] | 118 | 86.3 | 53.6 | 71 | 132 |  |  |  |
| 14 | 15.7 | Cn1cc(-c2cnc(C(=O)NCc3ccc(Cl)cc3F)cc2O[C@H]2CCN3C(=O)OC[C@@H]3C2)cn1 [Compound 97] | 191 | 101 | 95.5 |  |  |  |  |  |
| 223 | 139 | Cc1cnn(-c2cnc(C(=O)NCc3ccc(Cl)cc3)cc2O[C@H]2CCN3C(=O)OC[C@@H]3C2)c1 [Compound 105] | 655 | 1300 | 870 |  |  |  |  |  |
| 224 | 197 | Cc1ccn(-c2cnc(C(=O)NCc3ccc(Cl)cc3)cc2O[C@H]2CCN3C(=O)OC[C@@H]3C2)n1 [Compound 106] | 575 | 923 | 288 |  |  |  |  |  |

| IC50 [1] [nM] | IC50 [2] [nM] | Compound | EC50 [3, 6] [nM] | EC50 [4, 7] [nM] | EC50 [5, 8] [nM] | EC50 [3, 9] [nM] | EC50 [5, 10] [nM] | EC50 ([3]; Human alphaherpesvirus 1, Vero, read-out: HSV1 Cell (EC50) VERO 10%) [nM] | EC50 ([4]; Human betaherpesvirus 5, AD169, MRC5, read-out: HCMV Cell (EC50)) [nM] | EC50 ([5]; Human alphaherpesvirus 3, MeWo, read-out: VZV Cell (EC50) MEWO 10%) [nM] |
| --- | --- | --- | --- | --- | --- | --- | --- | --- | --- | --- |
| 24 | 3.07 | COC(C)(C)Cc1cnc(C(=O)NCc2ccc(Cl)cc2)cc1O[C@H]1CCN2C(=O)OC[C@@H]2C1 [Compound 107] |  | 549 |  | 473 | 582 |  |  |  |
| 45.1 | 26.4 | O=C(NCc1ccc(Cl)cc1)c1cc(O[C@H]2CCN3C(=O)OC[C@@H]3C2)c(C2CC(F)(F)C2)cn1 [Compound 108] |  | 844 |  | 646 | 1620 |  |  |  |
| 22 | 4.84 | COC1CC(c2cnc(C(=O)NCc3ccc(Cl)cc3)cc2O[C@H]2CCN3C(=O)OC[C@@H]3C2)C1 (stereo partly drawn) [Compound 110] |  | 354 |  | 998 | 1520 |  |  |  |
| 13.6 | 13.8 | CC(C)(O)Cc1cnc(C(=O)NCc2ccc(Cl)cc2)cc1O[C@H]1CCN2C(=O)OC[C@@H]2C1 [Compound 111] | 719 | 396 |  | 1120 | 1160 |  |  |  |
| 54.4 | 31.1 | O=C(NCc1ccc(Cl)cc1)c1cc(O[C@H]2CCN3C(=O)OC[C@@H]3C2)c(CCO)cn1 [Compound 112] | 3260 | 635 | 482 |  |  |  |  |  |
| 173 | 132 | O=C(NCc1ccc(Cl)cc1)c1cc(O[C@H]2CCN3C(=O)OC[C@@H]3C2)c(CCn2cccn2)cn1 [Compound 115] | 1280 | 1720 | 900 |  |  |  |  |  |
| 16.2 | 2.6 | COC1CN(c2cnc(C(=O)NCc3ccc(Cl)cc3)cc2O[C@H]2CCN3C(=O)OC[C@@H]3C2)C1 [Compound 120] |  | 210 |  | 434 | 441 |  |  |  |
| 19.2 | 9.04 | O=C(NCc1ccc(Cl)cc1)c1cc(O[C@H]2CCN3C(=O)OC[C@@H]3C2)c(N2CC(O)C2)cn1 [Compound 122] |  | 121 |  | 520 | 582 |  |  |  |
| 37.7 | 20 | O=C(NCc1ccc(Cl)cc1)c1cc(O[C@H]2CCN3C(=O)OC[C@@H]3C2)c(N2CC(F)C2)cn1 [Compound 125] |  | 198 |  | 531 | 720 |  |  |  |
| 25.8 | 16.6 | O=C(NCc1ccc(Cl)cc1)c1cc(O[C@H]2CCN3C(=O)OC[C@@H]3C2)c(OCC(F)(F)F)cn1 [Compound 126] | 154 | 572 | 488 | 1960 | 1460 |  |  |  |
| 30 | 28.3 | N#Cc1cnc(C(=O)NCc2ccc(Cl)cc2)cc1O[C@H]1CCN2C(=O)OC[C@@H]2C1 [Compound 127] | 234 | 349 | 239 | 800 | 1110 |  |  |  |
| 89.1 | 43.4 | Cc1c[n+]([O-])c(C(=O)NCc2ccc(Cl)cc2)cc1O[C@H]1CCN2C(=O)OC[C@@H]2C1 [Compound 130] | 496 | 557 | 252 |  |  |  |  |  |
| 11.8 | 11 | CC(C)n1cc(-c2c[n+]([O-])c(C(=O)NCc3ccc(Cl)cc3)cc2O[C@H]2CCN3C(=O)OC[C@@H]3C2)cn1 [Compound 131] | 268 | 98.5 | 158 |  |  |  |  |  |
| 161 | 40.3 | CC(=O)N1CCC(Oc2cc(C(=O)NCc3ccc(Cl)cc3)[n+]([O-])cc2-c2cnn(C(F)F)c2)CC1 [Compound 132] | 401 | 1320 | 510 |  |  |  |  |  |
| 90 | 41.1 | O=C(NCc1ccc(Cl)cc1)c1cc(O[C@H]2CCN3C(=O)OC[C@@H]3C2)c(CN2CCC(O)CC2)cn1 [Compound 135] | 9210 | 634 | 344 |  |  |  |  |  |
| 214 | 152 | CN(CCCO)Cc1cnc(C(=O)NCc2ccc(Cl)cc2)cc1O[C@H]1CCN2C(=O)OC[C@@H]2C1 [Compound 136] | 9260 | 989 | 386 |  |  |  |  |  |

| Compound | IC50 [1] [nM] | IC50 [2] [nM] | EC50 [3, 6] [nM] | EC50 [4, 7] [nM] | EC50 [5, 8] [nM] | EC50 [3, 9] [nM] | EC50 [5, 10] [nM] | EC50 ([3]; Human alphaherpesvirus 1, Vero, read-out: HSV1 Cell (EC50) VERO 10%) [nM] | EC50 ([4]; Human betaherpesvirus 5, AD169, MRC5, read-out: HCMV Cell (EC50)) [nM] | EC50 ([5]; Human alphaherpesvirus 3, MeWo, read-out: VZV Cell (EC50) MEWO 10%) [nM] |
| --- | --- | --- | --- | --- | --- | --- | --- | --- | --- | --- |
| COc1cnc(C(=O)NCc2ccc(Cl)cc2)cc1O[C@H]1CCN2C(=O)OC[C@@H]2C1 [Compound 129] | 54 | 18 |  |  |  |  |  | 339 | 546 | 278 |
